Each compound was assayed against human TRPA1 (Homo sapiens (Human), UniProt O75762) (assay: In vitro inhibition of human TRPA1, whole cell patch configuration). Details: current activation 10 μM AITC, tested concentrations 320 pM to 3.2 μM, read-out: hTRPA1 IC50.
Assay type: cell-based
Description: All currents were recorded in whole-cell configuration using EPC-9 and EPC-10 amplifiers and Patchmaster software (HEKA) or similar. […] The standard bath solution contained 150 mM NaCl, 10 mM HEPES, 10 mM glucose, 4.5 mM KCl, 1 mM EGTA, 3 mM MgCl2, with pH adjusted to 7.4 with NaOH. In some instances, 2 mM CaCl2 was added in place of EGTA and the concentration of MgCl2 was reduced to 1 mM.
Data were collected either by continuous recordings at −60 mV or by applying voltage ramps from a holding potential of −40 mV every 4 s. Continuous recordings were collected at 400 Hz and digitally filtered off-line at 10 Hz for presentation. Voltage ramps were applied from −100 mV or −80 mV to +100 mV or +80 mV over the course of 400 ms, and data were collected at 10 kHz and filtered at 2.9 kHz. Inward and outward currents were analyzed from the ramps at −80 and 80 mV, respectively. Liquid junction potential correction was not used.
Solutions were switched using a gravity-fed continuous focal perfusion system. To achieve rapid temperature changes, two temperature control, and perfusion systems were employed simultaneously. […] Temperatures were confirmed using a thermistor (Warner Instruments, TA-29), with temperatures at the recorded cell estimated to be within +/−2° C. of those reported.
The antagonist effects of compounds of Formula (I) against human TRPA1 (“hTRPA1”) in a whole cell patch configuration were evaluated using the in vitro assay described above.

Chain of human TRPA1 (O75762 whole entry): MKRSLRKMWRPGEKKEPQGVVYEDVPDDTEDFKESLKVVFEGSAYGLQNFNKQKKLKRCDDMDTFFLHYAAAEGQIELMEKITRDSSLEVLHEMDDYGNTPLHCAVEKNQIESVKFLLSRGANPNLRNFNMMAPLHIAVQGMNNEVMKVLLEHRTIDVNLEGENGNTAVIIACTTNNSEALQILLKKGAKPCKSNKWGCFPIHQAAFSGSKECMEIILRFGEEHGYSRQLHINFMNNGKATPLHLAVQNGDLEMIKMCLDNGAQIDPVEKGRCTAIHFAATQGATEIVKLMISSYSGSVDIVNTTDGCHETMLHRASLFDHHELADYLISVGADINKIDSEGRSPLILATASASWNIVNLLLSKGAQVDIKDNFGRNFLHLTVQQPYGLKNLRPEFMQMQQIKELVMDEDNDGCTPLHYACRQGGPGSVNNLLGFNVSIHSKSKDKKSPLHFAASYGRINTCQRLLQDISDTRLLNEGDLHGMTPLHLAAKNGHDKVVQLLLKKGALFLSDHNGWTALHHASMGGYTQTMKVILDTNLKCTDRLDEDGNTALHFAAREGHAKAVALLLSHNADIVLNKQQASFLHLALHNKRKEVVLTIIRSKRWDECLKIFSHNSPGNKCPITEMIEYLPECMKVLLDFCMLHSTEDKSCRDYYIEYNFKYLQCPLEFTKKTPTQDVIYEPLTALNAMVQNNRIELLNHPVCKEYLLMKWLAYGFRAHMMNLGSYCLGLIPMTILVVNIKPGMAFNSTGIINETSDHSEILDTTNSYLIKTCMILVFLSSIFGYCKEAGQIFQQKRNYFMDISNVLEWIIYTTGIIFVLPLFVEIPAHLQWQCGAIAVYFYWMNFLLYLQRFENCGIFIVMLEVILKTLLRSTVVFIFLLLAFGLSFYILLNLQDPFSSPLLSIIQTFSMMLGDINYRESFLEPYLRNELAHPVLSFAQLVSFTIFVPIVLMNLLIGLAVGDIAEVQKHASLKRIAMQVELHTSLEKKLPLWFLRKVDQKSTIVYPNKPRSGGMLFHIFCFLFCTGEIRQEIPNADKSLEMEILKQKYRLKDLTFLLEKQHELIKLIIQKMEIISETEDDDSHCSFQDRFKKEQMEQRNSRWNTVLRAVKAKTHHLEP

| IC50 | Compound |
| --- | --- |
| 7 nM | CC(=O)Cn1c(=O)c2c(ncn2[C@@H](C)C(=O)Nc2cncc(-c3cnc(N4CC5CC5C4)nc3)n2)n(C)c1=O (stereo partly drawn) [Compound 152, (2S)—N-(6-(2-(3-azabicyclo[3.1.0]hexan-3-yl)pyrimidin-5-yl)pyrazin-2-yl)-2-(3-methyl-2,6-dioxo-1-(2-oxopropyl)-2,3-dihydro-1H-purin-7(6H)-yl)propanamide] |
| 310 nM | CC(O)Cn1c(=O)c2c(ncn2CC(=O)Nc2cccc(-c3cnc(N4CCC[C@H]4C(F)(F)F)nc3)n2)n(C)c1=O (stereo partly drawn) [Compound 184, 2-(1-(2-hydroxypropyl)-3-methyl-2,6-dioxo-1,2,3,6-tetrahydropurin-7-yl)-N-(6-(2-((S)-2-(trifluoromethyl)pyrrolidin-1-yl)pyrimidin-5-yl)pyridin-2-yl)acetamide] |
| 2 nM | CCC(=O)Cn1c(=O)c2c(ncn2[C@@H](C)C(=O)Nc2csc(-c3cnc(C(F)(F)F)c(C)c3)n2)n(C)c1=O [Compound 83, (S)-2-(3-methyl-2,6-dioxo-1-(2-oxobutyl)-2,3-dihydro-1H-purin-7(6H)-yl)-N-(2-(5-methyl-6-(trifluoromethyl)pyridin-3-yl)thiazol-4-yl)propanamide] |
| 74 nM | Cn1c(=O)n(Cc2ccccn2)c(=O)c2c1ncn2CC(=O)Nc1cccc(-c2ccc(F)c(F)c2)n1 [Compound 187, N-(6-(3,4-difluorophenyl)pyridin-2-yl)-2-(3-methyl-2,6-dioxo-1-(pyridin-2-ylmethyl)-2,3-dihydro-1H-purin-7(6H)-yl)acetamide] |
| 25 nM | Cc1cc(Cn2c(=O)c3c(ncn3CC(=O)Nc3cccc(-c4ccc(C(F)(F)F)nc4)n3)n(C)c2=O)no1 [Compound 215, 2-(3-methyl-1-((5-methylisoxazol-3-yl)methyl)-2,6-dioxo-2,3-dihydro-1H-purin-7(6H)-yl)-N-(6′-(trifluoromethyl)-2,3′-bipyridin-6-yl)acetamide] |
| 1 nM | CC#CCn1c(=O)c2c(ncn2[C@@H](C)C(=O)Nc2csc(-c3cnc(N4CCC[C@H]4C(F)(F)F)nc3)n2)n(C)c1=O [Compound 268, (S)-2-(1-(but-2-ynyl)-3-methyl-2,6-dioxo-2,3-dihydro-1H-purin-7(6H)-yl)-N-(2-(2-((S)-2-(trifluoromethyl)pyrrolidin-1-yl)pyrimidin-5-yl)thiazol-4-yl)propanamide] |
| 16 nM | CC(=O)Cn1c(=O)c2c(ncn2CC(=O)Nc2csc(-c3cnc(C(F)(F)F)c(C)c3)n2)n(C)c1=O [Compound 216, 2-(3-methyl-2,6-dioxo-1-(2-oxopropyl)-2,3-dihydro-1H-purin-7(6H)-yl)-N-(2-(5-methyl-6-(trifluoromethyl)pyridin-3-yl)thiazol-4-yl)acetamide] |
| 5 nM | Cc1cc(Cn2c(=O)c3c(ncn3CC(=O)Nc3cccc(-c4cnc(C(F)(F)F)c(C)c4)n3)n(C)c2=O)no1 [Compound 221, 2-(3-methyl-1-((5-methylisoxazol-3-yl)methyl)-2,6-dioxo-2,3-dihydro-1H-purin-7(6H)-yl)-N-(5′-methyl-6′-(trifluoromethyl)-[2,3′-bipyridin]-6-yl)acetamide] |
| 7 nM | CC(=O)Cn1c(=O)c2c(ncn2[C@@H](C)C(=O)Nc2cccc(-c3cnc(N4CC5CC5C4)nc3)n2)n(C)c1=O (stereo partly drawn) [Compound 142, (2S)—N-(6-(2-(3-azabicyclo[3.1.0]hexan-3-yl)pyrimidin-5-yl)pyridin-2-yl)-2-(3-methyl-2,6-dioxo-1-(2-oxopropyl)-2,3-dihydro-1H-purin-7(6H)-yl)propanamide] |
| 8 nM | CC(=O)Cn1c(=O)c2c(ncn2[C@@H](C)C(=O)Nc2cncc(-c3cnc(C)c(C(F)(F)F)c3)n2)n(C)c1=O [Compound 109, (S)-2-(3-methyl-2,6-dioxo-1-(2-oxopropyl)-2,3-dihydro-1H-purin-7(6H)-yl)-N-(6-(6-methyl-5-(trifluoromethyl)pyridin-3-yl)pyrazin-2-yl)propanamide] |
| 1 nM | CCC(=O)Cn1c(=O)c2c(ncn2[C@@H](C)C(=O)Nc2csc(-c3ccc(N4CC5C(C4)C5(F)F)nc3)n2)n(C)c1=O (stereo partly drawn) [Compound 80, (2S)—N-(2-(6-(6,6-difluoro-3-azabicyclo[3.1.0]hexan-3-yl)pyridin-3-yl)thiazol-4-yl)-2-(3-methyl-2,6-dioxo-1-(2-oxobutyl)-2,3-dihydro-1H-purin-7(6H)-yl)propanamide] |
| 8 nM | C[C@@H](C(=O)Nc1cncc(-c2ccc(N3CC4CC4C3)nc2)n1)n1cnc2c1c(=O)n(CC#N)c(=O)n2C (stereo partly drawn) [Compound 43, (2S)—N-(6-(6-(3-azabicyclo[3.1.0]hexan-3-yl)pyridin-3-yl)pyrazin-2-yl)-2-(1-(cyanomethyl)-3-methyl-2,6-dioxo-2,3-dihydro-1H-purin-7(6H)-yl)propanamide] |
| 13 nM | Cc1cc(-c2cncc(NC(=O)[C@H](C)n3cnc4c3c(=O)n(Cc3ccon3)c(=O)n4C)n2)cnc1C(F)(F)F [Compound 137, (S)-2-(1-(isoxazol-3-ylmethyl)-3-methyl-2,6-dioxo-2,3-dihydro-1H-purin-7(6H)-yl)-N-(6-(5-methyl-6-(trifluoromethyl)pyridin-3-yl)pyrazin-2-yl)propanamide] |
| 3 nM | CC(=O)Cn1c(=O)c2c(ncn2CC(=O)Nc2cccc(-c3cnc(N4CCC[C@H]4C(F)(F)F)nc3)n2)n(C)c1=O [Compound 183, (S)-2-(3-methyl-2,6-dioxo-1-(2-oxopropyl)-1,2,3,6-tetrahydropurin-7-yl)-N-(6-(2-(2-(trifluoromethyl)pyrrolidin-1-yl)pyrimidin-5-yl)pyridin-2-yl)acetamide] |
| 10 nM | CC(C(=O)Nc1ccnc(-c2cnc(N3CC4CC4C3)nc2)n1)n1cnc2c1c(=O)n(CC#N)c(=O)n2C (stereo not shown) [Compound 24, N-(2′-(3-azabicyclo[3.1.0]hexan-3-yl)-2,5′-bipyrimidin-4-yl)-2-(1-(cyanomethyl)-3-methyl-2,6-dioxo-2,3-dihydro-1H-purin-7(6H)-yl)propanamide] |
| 5 nM | CC(=O)Cn1c(=O)c2c(ncn2[C@@H](C)C(=O)Nc2csc(-c3cnc(C(F)(F)F)c(C)c3)n2)n(C)c1=O [Compound 82, (S)-2-(3-methyl-2,6-dioxo-1-(2-oxopropyl)-2,3-dihydro-1H-purin-7(6H)-yl)-N-(2-(5-methyl-6-(trifluoromethyl)pyridin-3-yl)thiazol-4-yl)propanamide] |
| 1 nM | CCC(=O)Cn1c(=O)c2c(ncn2[C@@H](C)C(=O)Nc2cccc(-c3cnc(OC)c(C(F)(F)F)c3)n2)n(C)c1=O [Compound 124, (S)—N-(6′-methoxy-5′-(trifluoromethyl)-[2,3′-bipyridin]-6-yl)-2-(3-methyl-2,6-dioxo-1-(2-oxobutyl)-2,3-dihydro-1H-purin-7(6H)-yl)propanamide] |
| 219 nM | Cc1cc(-c2nc(NC(=O)Cn3cnc4c3c(=O)n(CC(F)(F)F)c(=O)n4C)cs2)cnc1C(F)(F)F [Compound 251, 2-(3-methyl-2,6-dioxo-1-(2,2,2-trifluoroethyl)-2,3-dihydro-1H-purin-7(6H)-yl)-N-(2-(5-methyl-6-(trifluoromethyl)pyridin-3-yl)thiazol-4-yl)acetamide] |

| Compound | IC50 |
| --- | --- |
| Cn1c(=O)n(Cc2ccccn2)c(=O)c2c1ncn2CC(=O)Nc1csc(-c2ccc(Cl)cc2)n1 [Compound 190] | 17 nM |

— patent publication US10221177B2 (HYDRA BIOSCIENCES, INC., priority 2014, dated 2019)
